Test results published in a melting point compilation (Tetko et al.; mined from patent text by program, amines drawn as free bases though some values may be those of a salt).

SMILES	melting point
CNC(=O)CC1CN=C(c2cc3cc(Oc4ccc(S(C)(=O)=O)nc4)cc(OC(COC)COC)c3[nH]2)S1 (configuration not stated)	149 to 151 °C
Cn1ncnc1COc1nn2c(-c3cccnc3)nncc2c1-c1ccccc1F	164 to 166 °C
CCc1nc(NC(=N)N)sc1-c1cccc([N+](=O)[O-])c1	149 to 151 °C
O=C(O)c1ccc(OCCCCCCc2cccc(O)c2O)cc1	170 to 172 °C
Cc1csc(NC(=O)C2=C(O)c3ccc4ccccc4c3S(=O)(=O)N2C)n1	177 °C
COC(=O)c1cc(CCC2CNc3nc(NC(=O)C(C)(C)C)nc(O)c3C2)cn1[Si](C(C)C)(C(C)C)C(C)C (configuration not stated)	202 to 204 °C
N=C(N)Nc1ncc(CSCCNC2=NS(=O)N=C2N)s1 (configuration not stated)	85 to 132 °C
O=c1c2ccccc2nnn1CCO	114 °C
N#CSc1ccc(N)c(N)c1	108 to 110 °C
CC(=O)N1CCc2cc(S(=O)(=O)n3c(CCCC(=O)O)cc4cc(Cl)ccc43)ccc21	115 to 117 °C
O=C(O)c1ccc(COCc2csc3nc(C(=O)NCc4ccnc(OCCCc5nc[nH]n5)c4)[nH]c(=O)c23)cc1	206 to 209 °C
Cc1ccc(-n2c(=O)c(C)nc3cccnc32)cc1	215 to 216 °C
CCCN(CCC)C(=O)c1cc(C(=O)N[C@@H](Cc2cc(F)cc(F)c2)[C@H](O)CNC2(c3cc(CN(C)C)ccn3)CC2)cc(-c2ncco2)c1	70 to 72 °C
N#Cc1nc(-c2ccccc2)c[nH]1	151 to 153 °C
Cc1c(CC(C)(C)C(=O)O)n(Cc2ccc(Cl)cc2)c2ccc(OCc3ccc4ccccc4n3)cc12	215 to 217 °C
CCCCN(Cc1ccc(-c2ccccc2-c2nnn[nH]2)cc1)c1ncccc1C(=O)O	203 to 205 °C
CN(C)CCCn1c2c(c3ccccc31)CCS(=O)(=O)CCC2	119 to 120 °C
OC[C@@H](COc1ccccc1)OC1CCCCO1 (some centres not stated)	39 to 41 °C
CCOC(=O)Cc1cn(Cc2ccccc2)nc1OCc1ccc(OCc2nc(-c3ccccc3)oc2C)c(OC)c1	86 to 87 °C
CN(C)c1ccc(/C=C/c2cccc(F)c2)cc1	147 to 148 °C
Cc1nccn1CCCC1CCc2onc(-c3ccccc3)c2C1=O (configuration not stated)	97 to 99 °C
NC(=O)Nc1nc2n(n1)CCc1ccccc1-2	210 to 212 °C
Cc1c(-c2ccccc2)oc2c(C(=O)NCCCN3CCC(n4c(=O)[nH]c5ccccc54)CC3)cccc2c1=O	238 to 241 °C
O=C(NC12CC3CC(CC(C3)C1)C2)c1cc(O)c(O)c(Cl)c1	244 to 247 °C
CCOc1ccc2c(c1)n(-c1ccccn1)c(=O)n2S(=O)(=O)c1ccc(C(=O)O)cc1OC	241 °C

SMILES	melting point
NC(=O)CCC(C(=O)O)N1C(=O)c2cccc([N+](=O)[O-])c2C1=O (configuration not stated)	182 to 184 °C
Cc1ccc(C2(O)c3ccccc3C(=O)c3ccccc32)cc1	203 to 209 °C
CCOC(=O)C1=C(C)NC(c2cscn2)=NC1c1cccc(Cl)c1 (configuration not stated)	105 to 108 °C
CCc1nc2c(N)nc3ccccc3c2n1CCC1(O)CC1	199 to 200 °C
COc1cc2c(cc1Cl)C(O)Cc1ccc(F)cc1S2 (configuration not stated)	143 to 145 °C
O=C1CC(c2ccc(OCc3ccccc3)cc2)=Nc2ccc(N3CCCC3)cc21	330 to 332 °C
CC(C)c1nc(-c2ccccc2)n(-c2ccc(F)cc2)c1C=O	159 to 161 °C
CCCS(=O)(=O)c1ccc(NS(=O)(=O)c2cccs2)c2[nH]c(C(=O)O)cc12	247 to 248 °C
Cn1ncc(N2CCCC2)c(-c2ccccc2C=O)c1=O	140 to 141 °C
COc1ccc(C2(C(=O)O)CCC(=O)CC2)cc1	154 to 156 °C
CCOC(=O)c1c(O)c2ccc(Cl)cc2c(=O)n1C	109 to 110 °C
COc1cc([N+](=O)[O-])ccc1N1CCN(CCCNc2c(C)c(=O)n(C)c(=O)n2C)CC1	131 to 133 °C
O=C(NCCO[N+](=O)[O-])c1ccco1	88 to 89 °C
COc1ccc(N2C(=O)Cc3ccccc32)cc1Cl	165 to 167 °C
CCC1(Cc2nc[nH]c2C)CCc2c(C)c3ccccc3n2C1=O (configuration not stated)	202 to 204 °C
c1ccc(-c2cc(-c3ccc(-c4nccc5ccccc45)cc3)cc(-c3nc(-c4ccccc4)nc(-c4ccccc4)n3)c2)cc1	280 °C
c1ccc2nc(COc3ccc(NC4CCCC4)cc3)ccc2c1	88 °C
CC1(C)C=C(O)C(=O)C(C)(C)C1	85 to 86 °C
CSC(=N)NC(c1ccccc1)c1ccc(C)cc1 (configuration not stated)	130 to 132 °C
C=CCNC(=O)COc1ccc(C2=NNC(=O)CC2)cc1Cl	145 to 146 °C
N#Cc1ccc(C=NO)c(F)c1	179 to 182 °C
CC(C)n1nc(-c2cc(I)c(N)nc2-c2ccccc2)ccc1=O	196 to 197 °C
O=[N+]([O-])c1ccc(O)c(CO)c1	112 to 114 °C
OCc1ccc(C2=C(C3CCCC3)CCC2=NO)cc1	187 to 190 °C
Cc1cc2cc(C(=O)OCc3ccccc3)n(CC(=O)OC(C)(C)C)c2cc1C	133 to 134 °C

SMILES	melting point
COc1ccc2c(c1)C(=O)c1ccc(C3=NCCN3)cc1S2(=O)=O	220 to 224 °C
Cc1cscc1NC(=S)Nc1cc(Cl)c(Cl)cc1N	310 to 320 °C
N=C(c1ccccc1)C1CCN1C(c1ccccc1)c1ccccc1 (configuration not stated)	124 to 126 °C
Cc1cccc2sc(Sc3ccc4c(c3)CC[C@H]3N(C)C(=O)CC[C@]43C)nc12	134 to 142 °C
COc1ccc(C2=NN(C3CCN(C(C)=O)CC3)C(=O)CC2C)cc1OC (configuration not stated)	149 to 152 °C
NC1=NC(c2cccc(-c3cccnc3F)c2)(c2ccc3c(c2)OC(F)(F)O3)C2=NCCCN12 (configuration not stated)	95 to 99 °C
COc1cc(C(C)=O)c(O)cc1N1CCN(Cc2ccccc2)CC1	90 to 92 °C
COC(=O)c1cccc([N+](=O)[O-])c1Cl	68 to 70 °C
NC(=S)NC[C@H]1CN(c2ccc(-n3cncn3)cc2)C(=O)O1	214 to 215 °C
Cc1ccsc1-c1[nH]nc2c1C(=O)c1c(NC(N)=O)cccc1-2	270 °C
OCCn1cc(-c2cc3nccnc3[nH]2)c2ccccc21	272 to 273 °C
COC(=O)c1ccc(CNC(=O)C2Cc3ccccc3N2S(=O)(=O)c2ccc(-c3cccc(C(F)(F)F)c3)cc2)cc1 (configuration not stated)	70 °C
CC1(C)[C@@H](CNc2ccc(C(F)(F)F)cn2)CC[C@@]1(C)NCC(=O)N1C[C@@H](F)C[C@H]1C#N	52 to 58 °C
CC(C)(C)OC(=O)N1CCO[C@@H](c2ccc(C(=O)O)cc2)C1	173 °C
O=[N+]([O-])c1ccc2c(c1Br)OCO2	87 to 89 °C
N#Cc1cnc2cc(-c3ccc(C=O)cc3)sc2c1Nc1ccc(Oc2ccccc2)cc1	230 to 232 °C
C[C@@H]1N(c2ccc(C#N)c(C(F)(F)F)c2)C(=O)C[C@@]1(O)C1CC1	84 to 90 °C
COC(=O)c1nc2ccccc2c(N)c1C(=O)OC	167 to 168 °C
CCNC(=O)c1cc(Cl)ccc1[Si](C)(C)C	104 to 105 °C
CC(Cc1cccnc1)(NC(=O)OC1C2CC3CC(C2)CC1C3)C(=O)NCCc1ccccc1 (configuration not stated)	167 to 169 °C
Cc1oc(-c2ccccc2)nc1COc1cccc(CSc2ccc(CC(=O)O)cc2Cl)c1	150 to 151 °C
O=C1CC(c2cccc(Cl)c2)c2cc(C(c3ccc(Cl)cc3)n3ccnc3)cc3c2N1CCC3 (configuration not stated)	93.6 °C
COC(=O)/C=C/C(=O)O[C@@H](C)C(=O)N1CCOCC1	79 to 82 °C
COc1cc(I)c(C(=O)N(c2ccnc3cc4c(cc23)OCO4)C(C)CN(C)C)cc1OC (configuration not stated)	82 to 84 °C
CC(C)=CCn1c(Cl)nc2c1c(=O)[nH]c(=O)n2C	226 to 228 °C

SMILES	melting point
CS(=O)(=O)Cc1ccc(Oc2cc(OC3CCOCC3)c3[nH]c(C4=NCC(CC(N)=O)S4)cc3c2)cn1 (configuration not stated)	164 to 167 °C
COc1ccc(C2=C(c3c[nH]c4ccccc34)C(=O)NC2=O)cc1OC	210 °C
O=C1CCc2cccc3c2N1C(=O)C3	194 to 197 °C
O=Cc1ccc(S(=O)(=O)CCCl)cc1	70 to 72 °C
CCC(C)n1c(=O)nc(SC)[nH]c1=O (configuration not stated)	134 to 136 °C
COC1CN2[C@H]3CC[C@@H]2[C@@H]1[C@@H](c1ccc(Cl)c(Cl)c1)C3 (some centres not stated)	139 to 141 °C
CN1CCN(c2c(F)c(NCc3ccccc3)c3nc(CC(N)=O)n(C4CC4)c3c2F)CC1	157 to 159 °C
CCc1c(-c2ccc(OCc3ccccc3)cc2)c2c3c(c4c(OCc5ccccc5)ccc1n42)C(=O)OC3=O	229 to 231 °C
COC(=O)c1cc(I)c(C(F)(F)F)cc1NC(C)=O	96 to 98 °C
CCNC(=O)n1nc(Oc2ncc(C(F)(F)F)cc2Cl)cc1CC	85 to 86 °C
C=CCn1cc(Cc2ccc(C(=O)O)cc2OC)c2cc(CC(=O)NCCCC)ccc21	78 to 80 °C
O=C1/C(=C(/c2ccccc2)N2CCCC2)Sc2ccccc21	157 °C
Cc1nc(C)c(Cl)c(NCc2nccc(OCCCCSCCn3c([N+](=O)[O-])cnc3C)c2C)n1	114 to 117 °C
COc1ccc(S(=O)(=O)N2CCC(N3N=C(c4ccc(OC)c(OC)c4)CCC3=O)CC2)cc1	197 to 198 °C
CCC1OCCn2c1nc(C(=O)NCc1ccc(F)cc1-n1ncnc1C)c(OCc1ccccc1)c2=O (configuration not stated)	163 °C
CC(C)OC(=O)NC(=O)C(c1ccccc1)c1ccccc1	122 to 124 °C
O=C1CCC(N2C(=O)c3cccc(NC(=O)c4cccc(Cl)c4)c3C2=O)C(=O)N1 (configuration not stated)	257 to 259 °C
COc1cc(C(=O)CS(C)(=O)=O)cc(OC)c1N(C)C	111 to 112 °C
CC(=O)OCC1=C(C(=O)OC(C)(C)C)N2C(=O)C(NC(=O)Cn3ccnc3S(C)(=O)=O)C2SC1 (configuration not stated)	164 °C
CC(C)(C)OC(=O)NCCNC(=O)c1ncsc1-c1cccc(I)c1	111 to 112 °C
CCCCc1ncc(C(=O)OCC)c(=O)n1Cc1ccc(-c2ccccc2-c2nnn[nH]2)cc1	168 to 173 °C
COc1ccc(Cc2nc(OCc3ccccc3)cc3cc(OC)c(OC)cc23)cc1OC	114 to 116 °C
